These results are taken from paper PMC5856786, “A DHODH inhibitor increases p53 synthesis and enhances tumor cell killing by p53 degradation blockage” (Nature Communications, 2018).

Chain of recombinant human DHODH (Q02127 31-395 limits assumed): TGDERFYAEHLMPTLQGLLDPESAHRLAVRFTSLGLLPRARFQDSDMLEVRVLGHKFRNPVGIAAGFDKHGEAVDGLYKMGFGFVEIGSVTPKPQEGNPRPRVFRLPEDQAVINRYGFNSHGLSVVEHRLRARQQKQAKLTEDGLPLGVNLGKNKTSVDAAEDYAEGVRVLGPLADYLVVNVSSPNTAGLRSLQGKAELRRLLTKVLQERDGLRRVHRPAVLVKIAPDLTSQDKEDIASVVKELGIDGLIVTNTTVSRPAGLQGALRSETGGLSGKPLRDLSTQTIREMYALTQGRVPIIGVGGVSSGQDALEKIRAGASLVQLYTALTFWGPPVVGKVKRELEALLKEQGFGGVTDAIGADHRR

For one assay, the target named is recombinant human DHODH (Homo sapiens, UniProt Q02127). Description: Endpoint DHODH enzyme assay (coenzyme Q10, DCIP). Also noted: purchased Prospecbio ENZ-642. The assay is classed as biochemical. The conditions noted are these: compound at 10 µM; Supplementary Table 5, 20,000 compound library. As to the method:
In Supplementary Tables 5 and 6, endpoint assays were performed with 10 nM recombinant human DHODH (#ENZ-642, Prospecbio). The reaction mixture consisted of 624.6 µM DL-dihydroorotic acid, 66.4 µM coenzyme Q10, 66.4 µM 2,6-dichlorophenolindophenol sodium salt (DCIP) (all reagents purchased from Sigma-Aldrich) in enzyme buffer (50 mM Tris-HCl, pH 8.0, 0.1% Triton X-100, 150 mM KCl). Loss in absorbance by DCIP was measured at 595 nm after incubation at RT for 60 min.
The term remaining activity denotes the signal under treatment as a percentage of the control signal. As to `O=C(Nc1ccc2ccccc2c1)C12CC3CC(CC(C3)C1)C2` [compound 5135537, N-2-naphthyl-1-adamantanecarboxamide], the remaining activity at 10 µM turned out to be 32%.

As to `O=C1CC(c2ccccc2OCc2ccccc2)c2cc3c(cc2N1)OCCO3` (stereo not drawn) [compound 7834586, 9-[2-(benzyloxy)phenyl]-2,3,8,9-tetrahydro[1,4]dioxino[2,3-g]quinolin-7(6H)-one], the remaining activity at 10 µM was determined as 103%.

For the compound `COc1ccc(C2c3[nH]c4ccccc4c3CCN2Cc2nccs2)cc1C` (stereo not drawn) [compound 90739158, 1-(4-methoxy-3-methylphenyl)-2-(1,3-thiazol-2-ylmethyl)-2,3,4,9-tetrahydro-1H-beta-carboline], the “remaining DHODH activity (%) Average” value amounted to 91.88%.

For the compound `CCc1cccc(C)c1NC(=O)CSc1nc2ccccc2c(=O)n1-c1cccc2ccccc12` [compound 7638934, N-(2-ethyl-6-methylphenyl)-2-{[3-(1-naphthyl)-4-oxo-3,4-dihydro-2-quinazolinyl]thio}acetamide], the “remaining DHODH activity (%) Average” value is given as 72.65%.

Regarding `O=S(=O)(CCSc1nc2ccccc2o1)c1nc2ccccc2s1` [compound 7617239, 2-{[2-(1,3-benzothiazol-2-ylsulfonyl)ethyl]thio}-1,3-benzoxazole], the remaining activity at 10 µM turned out to be 103%.

In the case of `CCC(C)Nc1ccc(-c2nc(-c3cccc(OC)c3OC)no2)cn1` (stereo not drawn) [compound 55410102, N-(sec-butyl)-5-[3-(2,3-dimethoxyphenyl)-1,2,4-oxadiazol-5-yl]-2-pyridinamine], the remaining activity at 10 µM worked out at 2.28%.

In the case of `CC1=C(C(=O)Nc2ccc(F)cc2)C(c2ccccc2OCc2ccccc2)C2=C(CCCC2=O)N1` (stereo not drawn) [compound 7705624, 4-[2-(benzyloxy)phenyl]-N-(4-fluorophenyl)-2-methyl-5-oxo-1,4,5,6,7,8-hexahydro-3-quinolinecarboxamide], the “remaining DHODH activity (%) Average” value is on record as 104.27%.

In the case of `Cc1ccccc1-c1noc(-c2ccc(N3CCC[C@H]3CO)nc2)n1` [compound 54631106, ((2S)-1-{5-[3-(2-methylphenyl)-1,2,4-oxadiazol-5-yl]-2-pyridinyl}-2-pyrrolidinyl)methanol], the “remaining DHODH activity (%) Average” value is recorded as 5.94%.

As to `O=c1oc2ccccc2cc1-c1cn2cc(Cl)ccc2n1` [compound 6623100, 3-(6-chloroimidazo[1,2-a]pyridin-2-yl)-2H-chromen-2-one], the remaining activity at 10 µM turned out to be 96.3%.

As to `O=C(Nc1cc(Cl)ccc1Cl)c1ccc([N+](=O)[O-])o1` [compound 5351342, N-(2,5-dichlorophenyl)-5-nitro-2-furamide], the remaining activity at 10 µM turned out to be 90.4%.

As to `COc1ccc(OC)c(C(C)NC(=O)c2ccco2)c1` (stereo not drawn) [compound 6912406, N-[1-(2,5-dimethoxyphenyl)ethyl]-2-furamide], the remaining activity at 10 µM was determined as 93.2%.

Consider `NC(=O)c1ccccc1NC(=O)Nc1ccccc1C(F)(F)F` [compound 7794325, 2-[({[2-(trifluoromethyl)phenyl]amino}carbonyl)amino]benzamide], for which the remaining activity at 10 µM turned out to be 92.2%.

With `CCN(CC)c1ccc(NC(=S)NC(=O)c2cccc(C)c2OC)cc1` [compound 7578012, N-({[4-(diethylamino)phenyl]amino}carbonothioyl)-2-methoxy-3-methylbenzamide], the remaining activity at 10 µM amounted to 79%.

For the compound `CCOC(=O)c1c(-c2ccccc2)csc1NC(=O)c1cc(OC)c(OC)c(OC)c1` [compound 5264537, ethyl 4-phenyl-2-[(3,4,5-trimethoxybenzoyl)amino]-3-thiophenecarboxylate], the remaining activity at 10 µM is 82.9%.

Consider `COc1cc(CNc2ccc(C)c(Cl)c2)cc(Cl)c1OC` [compound 7574753, (3-chloro-4,5-dimethoxybenzyl)(3-chloro-4-methylphenyl)amine], for which the remaining activity at 10 µM is 79.9%.

Turning to `Oc1ccccc1-c1nc(C=Cc2cccs2)n[nH]1` [compound 7776857, 2-{3-[2-(2-thienyl)vinyl]-1H-1,2,4-triazol-5-yl}phenol], the remaining activity at 10 µM worked out at 77.3%.

Still in this assay, the particulars now being: compound at 10 µM; Supplementary Table 6, 30,000 compound library.
Consider `CC1CCC(NC2CCCc3c2[nH]c2ccc([N+](=O)[O-])cc32)C1` (stereo not drawn) [compound 5781446, N-(3-methylcyclopentyl)-6-nitro-2,3,4,9-tetrahydro-1H-carbazol-1-amine], for which the remaining activity at 10 µM was 60.5%.

On to `COCCOC(=O)Nc1nc2sc3c(c2s1)CCCC3` [compound 5175570, 2-methoxyethyl 5,6,7,8-tetrahydro[1]benzothieno[2,3-d][1,3]thiazol-2-ylcarbamate], for which the remaining activity at 10 µM was 101%.

As for `COc1ccc(NC(=S)NC(=O)c2ccc(C(C)(C)C)cc2)c(OC)c1` [compound 6513572, 4-tert-butyl-N-{[(2,4-dimethoxyphenyl)amino]carbonothioyl}benzamide], the remaining activity at 10 µM stood at 97.8%.

For the compound `Cc1ccc(OCC(=O)NN=Cc2ccc(-c3ccc(Br)cc3)o2)cc1` [compound 5472837, N'-{[5-(4-bromophenyl)-2-furyl]methylene}-2-(4-methylphenoxy)acetohydrazide], the remaining activity at 10 µM was 98.4%.

For `COc1ccc(CC(C)NC2CCCc3c2[nH]c2ccc([N+](=O)[O-])cc32)cc1OC` (stereo not drawn) [compound 5781442, N-[2-(3,4-dimethoxyphenyl)-1-methylethyl]-6-nitro-2,3,4,9-tetrahydro-1H-carbazol-1-amine], the remaining activity at 10 µM was determined as 78.3%.

`COc1cc(C=C2N=C(SC)SC2=O)cc(Br)c1OCc1ccccc1` [compound 6638116, 4-[4-(benzyloxy)-3-bromo-5-methoxybenzylidene]-2-(methylthio)-1,3-thiazol-5(4H)-one]: the remaining activity at 10 µM turned out to be 78.8%.

For the compound `Nc1cccc2c1C(=O)c1cccc(NC(=O)c3ccccc3)c1C2=O` [compound 5301107, N-(5-amino-9,10-dioxo-9,10-dihydro-1-anthracenyl)benzamide], the remaining activity at 10 µM came out at 100%.

With `Cc1ccc2[nH]c3c(c2c1)CCCC3NC=C1C(=O)CC(C)(C)CC1=O` (stereo not drawn) [compound 5666613, 5,5-dimethyl-2-{[(6-methyl-2,3,4,9-tetrahydro-1H-carbazol-1-yl)amino]methylene}-1,3-cyclohexanedione], the “remaining DHODH activity (%) Average” value is reported as 92.20%.

For the compound `CSC1=NC(=Cc2ccc(OCc3ccccc3)cc2)C(=O)S1` [compound 6638197, 4-[4-(benzyloxy)benzylidene]-2-(methylthio)-1,3-thiazol-5(4H)-one], the remaining activity at 10 µM stood at 74.9%.

As for `O=C1NC(c2ccc3ccccc3c2)Nc2sc3c(c21)CCCC3` (stereo not drawn) [compound 5232020, 2-(2-naphthyl)-2,3,5,6,7,8-hexahydro[1]benzothieno[2,3-d]pyrimidin-4(1H)-one], the remaining activity at 10 µM came to 43.5%.

Regarding `Cc1ccc(C=NNC(=O)c2c(C)nc3ccc(Cl)cn23)cc1` [compound 5378429, 6-chloro-2-methyl-N'-(4-methylbenzylidene)imidazo[1,2-a]pyridine-3-carbohydrazide], the remaining activity at 10 µM was 100%.

For the compound `O=C(Nc1nc2ccccc2s1)C1c2ccccc2Oc2ccccc21` [compound 5704541, N-1,3-benzothiazol-2-yl-9H-xanthene-9-carboxamide], the remaining activity at 10 µM is 71%.

On to `CC(C)NC1CCCc2c1[nH]c1ccc([N+](=O)[O-])cc21` (stereo not drawn) [compound 5781470, N-isopropyl-6-nitro-2,3,4,9-tetrahydro-1H-carbazol-1-amine], for which the remaining activity at 10 µM was determined as 90.2%.

Consider `CCN(CC)c1ccc2cc(-c3nc4ccccc4o3)c(=O)oc2c1` [compound 5213777, 3-(1,3-benzoxazol-2-yl)-7-(diethylamino)-2H-chromen-2-one], for which the remaining activity at 10 µM was 92.1%.

For the compound `Cc1cc(O)c(NC(=S)NC(=O)c2ccc(C(C)(C)C)cc2)cc1C` [compound 6611243, 4-tert-butyl-N-{[(2-hydroxy-4,5-dimethylphenyl)amino]carbonothioyl}benzamide], the remaining activity at 10 µM was 51%.

For the compound `COc1ccc(CNc2ccc(Br)c(C)c2)cc1Br` [compound 5561538, (3-bromo-4-methoxybenzyl)(4-bromo-3-methylphenyl)amine], the remaining activity at 10 µM was determined as 42.5%.

In the case of `O=C1C(O)=C(c2ccc(-c3ccccc3)cc2)C(=O)c2ccccc21` [compound 5248918, 2-(4-biphenylyl)-3-hydroxynaphthoquinone], the “remaining DHODH activity (%) Average” value is -1.54%.

Consider `COc1ccc(Cl)cc1NC1=C(Cl)C(=O)N(c2cccc(C)c2C)C1=O` [compound 6149306, 3-chloro-4-[(5-chloro-2-methoxyphenyl)amino]-1-(2,3-dimethylphenyl)-1H-pyrrole-2,5-dione], for which the remaining activity at 10 µM came to 99.6%.

In the case of `COc1ccccc1N1CCN(C(=O)c2ccc(Cl)c([N+](=O)[O-])c2)CC1` [compound 5276937, 1-(4-chloro-3-nitrobenzoyl)-4-(2-methoxyphenyl)piperazine], the remaining activity at 10 µM came to 97.5%.

Consider `O=C(NN=Cc1cccc(Oc2ccccc2)c1)c1cccc([N+](=O)[O-])c1` [compound 5545710, 3-nitro-N'-(3-phenoxybenzylidene)benzohydrazide], for which the remaining activity at 10 µM was determined as 98%.

Regarding `CC(C)(C)c1ccc(C(=O)NC(=S)Nc2cccc(NC(=O)c3ccccc3)c2)cc1` [compound 6519439, N-({[3-(benzoylamino)phenyl]amino}carbonothioyl)-4-tert-butylbenzamide], the remaining activity at 10 µM came out at 63.2%.

For the compound `O=c1[nH]c(C=Cc2ccccc2)nc2sc3c(c12)CCCC3` [compound 5625039, 2-(2-phenylvinyl)-5,6,7,8-tetrahydro[1]benzothieno[2,3-d]pyrimidin-4(3H)-one], the remaining activity at 10 µM came out at 98.4%.

Take `COc1ccc(S(=O)(=O)Nc2ccc(I)cc2C)cc1` [compound 5351654, N-(4-iodo-2-methylphenyl)-4-methoxybenzenesulfonamide]: the remaining activity at 10 µM stood at 99.2%.
